Compound: C[C@@H](C(=O)N[C@@H](C1CCCCC1)C(=O)N2CCC[C@H]2C(=O)N[C@@H]3[C@@H](CC4=CC=CC=C34)OCC#CC#CCO[C@@H]5CC6=CC=CC=C6[C@@H]5NC(=O)[C@@H]7CCCN7C(=O)[C@H](C8CCCCC8)NC(=O)[C@H](C)NC)NC [AZD5582] + NC(=O)Nc1cc(-c2cccc(F)c2)sc1C(=O)N[C@H]1CCCNC1 [AZD7762] (partner 0.2 µM)
Assay: relative viability (nuclei count vs DMSO), 5 days (fraction); higher = more cells survive
Details: first compound 0.05 µM
Method in brief: (§1)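 Relative viability divides the nuclei count in treated wells by that in vehicle wells. Lung cancer cell lines were seeded in 1536-well plates, dosed by pin tool the next day, and fixed and stained after 5 days in one step with final 0.05% Triton X-100, 1% formaldehyde and 1 ug/ml Hoechst. Dosing was a single drug or a fixed anchor-drug dose plus five library-drug doses (not always all listed) in √10 steps, and values are medians of duplicate plates imaged at 4×.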

Going from NCI-H1355 to NCI-H1395, the relative viability falls from 0.556 to 0.406.

Compared with NCI-H1437, NCI-H1651 is lower in relative viability: 1.14 for the first, 0.388 for the second.

Going from NCI-H1666 to NCI-H1734, the relative viability rises from 0.746 to 0.749.

First: NCI-H1755
Second: NCI-H1793
The relative viability of the first is higher: 0.494 for the first, 0.487 for the second.

Going from NCI-H1915 to NCI-H1944, the relative viability rises from 0.495 to 0.581.

First: NCI-H1975
Second: NCI-H1993
The relative viability of the first is lower: 0.902 for the first, 1.03 for the second.

Compared with NCI-H2085, NCI-H2087 is higher in relative viability: 0.948 for the first, 1.13 for the second.

Going from NCI-H2126 to NCI-H2170, the relative viability rises from 0.747 to 1.04.

Compared with NCI-H2347, NCI-H2405 is higher in relative viability: 0.713 for the first, 0.997 for the second.

First: NCI-H3122
Second: PC-3 [JPC-3]
The relative viability of the first is lower: 0.306 for the first, 0.423 for the second.

First: PC-14
Second: RERF-LC-KJ
The relative viability of the first is lower: 0.183 for the first, 0.491 for the second.

Compound: C[C@@H](C(=O)N[C@@H](C1CCCCC1)C(=O)N2CCC[C@H]2C(=O)N[C@@H]3[C@@H](CC4=CC=CC=C34)OCC#CC#CCO[C@@H]5CC6=CC=CC=C6[C@@H]5NC(=O)[C@@H]7CCCN7C(=O)[C@H](C8CCCCC8)NC(=O)[C@H](C)NC)NC [AZD5582] + Cc1cc(Nc2cc(N3CCN(C)CC3)nc(Sc3ccc(NC(=O)C4CC4)cc3)n2)n[nH]1 [Tozasertib] (partner 0.1 µM)
Assay: as above
Details: first compound 0.001581 µM
Method in brief: as §1

Compared with LK-2, LOU-NH91 is higher in relative viability: 0.161 for the first, 0.594 for the second.

Going from LU99A to LXF-289, the relative viability falls from 0.252 to 0.195.

Going from NCI-H23 to NCI-H322M, the relative viability rises from 0.304 to 0.499.

First: NCI-H358
Second: NCI-H441
The relative viability of the first is lower: 0.126 for the first, 0.581 for the second.

Compared with NCI-H460, NCI-H647 is higher in relative viability: 0.0814 for the first, 0.269 for the second.

Going from NCI-H650 to NCI-H727, the relative viability rises from 0.648 to 0.651.

First: NCI-H838
Second: NCI-H1355
The relative viability of the first is lower: 0.265 for the first, 0.488 for the second.

Going from NCI-H1395 to NCI-H1437, the relative viability falls from 0.703 to 0.373.

Going from NCI-H1651 to NCI-H1666, the relative viability falls from 0.727 to 0.539.

Going from NCI-H1734 to NCI-H1755, the relative viability rises from 0.255 to 0.523.

First: NCI-H1793
Second: NCI-H1915
The relative viability of the first is lower: 0.241 for the first, 0.379 for the second.

First: NCI-H1944
Second: NCI-H1975
The relative viability of the first is lower: 0.226 for the first, 0.643 for the second.

Compared with NCI-H1993, NCI-H2085 is higher in relative viability: 0.599 for the first, 0.716 for the second.

First: NCI-H2087
Second: NCI-H2126
The relative viability of the first is lower: 0.23 for the first, 0.779 for the second.

Compared with NCI-H2170, NCI-H2347 is lower in relative viability: 0.647 for the first, 0.561 for the second.

First: NCI-H2405
Second: NCI-H3122
The relative viability of the first is higher: 0.74 for the first, 0.157 for the second.

First: PC-3 [JPC-3]
Second: PC-14
The relative viability of the first is higher: 0.775 for the first, 0.521 for the second.

Same assay, conditions: first compound 0.005 µM

Going from LK-2 to LOU-NH91, the relative viability rises from 0.174 to 0.679.

Going from LU99A to LXF-289, the relative viability falls from 0.349 to 0.192.

Compared with NCI-H23, NCI-H322M is higher in relative viability: 0.278 for the first, 0.579 for the second.

Compared with NCI-H358, NCI-H441 is higher in relative viability: 0.109 for the first, 0.653 for the second.

Compared with NCI-H460, NCI-H647 is lower in relative viability: 0.495 for the first, 0.347 for the second.

First: NCI-H650
Second: NCI-H727
The relative viability of the first is higher: 0.876 for the first, 0.732 for the second.

Going from NCI-H838 to NCI-H1355, the relative viability rises from 0.307 to 0.558.

Going from NCI-H1395 to NCI-H1437, the relative viability falls from 0.714 to 0.385.

Going from NCI-H1651 to NCI-H1666, the relative viability falls from 0.845 to 0.682.

Going from NCI-H1734 to NCI-H1755, the relative viability rises from 0.263 to 0.652.

First: NCI-H1793
Second: NCI-H1915
The relative viability of the first is higher: 0.486 for the first, 0.452 for the second.

Going from NCI-H1944 to NCI-H1975, the relative viability rises from 0.25 to 0.858.

Compared with NCI-H1993, NCI-H2085 is higher in relative viability: 0.681 for the first, 0.708 for the second.

First: NCI-H2087
Second: NCI-H2126
The relative viability of the first is lower: 0.218 for the first, 0.698 for the second.

Compared with NCI-H2170, NCI-H2347 is lower in relative viability: 0.716 for the first, 0.523 for the second.

First: NCI-H2405
Second: NCI-H3122
The relative viability of the first is higher: 0.813 for the first, 0.178 for the second.

First: PC-3 [JPC-3]
Second: PC-14
The relative viability of the first is higher: 0.909 for the first, 0.595 for the second.

Same assay, conditions: first compound 0.01581 µM

Going from LK-2 to LOU-NH91, the relative viability rises from 0.149 to 0.679.

Compared with LU99A, LXF-289 is lower in relative viability: 0.289 for the first, 0.18 for the second.

Going from NCI-H23 to NCI-H358, the relative viability falls from 0.328 to 0.102.

Compared with NCI-H460, NCI-H596 is higher in relative viability: 0.509 for the first, 0.943 for the second.

Compared with NCI-H647, NCI-H650 is higher in relative viability: 0.255 for the first, 0.722 for the second.

Compared with NCI-H727, NCI-H1355 is lower in relative viability: 0.58 for the first, 0.52 for the second.

Compared with NCI-H1395, NCI-H1437 is lower in relative viability: 0.81 for the first, 0.399 for the second.

First: NCI-H1666
Second: NCI-H1734
The relative viability of the first is higher: 0.638 for the first, 0.257 for the second.

Compared with NCI-H1755, NCI-H1793 is lower in relative viability: 0.599 for the first, 0.303 for the second.

Compared with NCI-H1915, NCI-H1944 is lower in relative viability: 0.447 for the first, 0.266 for the second.

Going from NCI-H1975 to NCI-H1993, the relative viability falls from 0.742 to 0.547.

Compared with NCI-H2085, NCI-H2087 is lower in relative viability: 0.798 for the first, 0.319 for the second.

First: NCI-H2126
Second: NCI-H2170
The relative viability of the first is higher: 0.806 for the first, 0.746 for the second.

Compared with NCI-H2347, NCI-H2405 is higher in relative viability: 0.5 for the first, 0.708 for the second.

Compared with NCI-H3122, PC-3 [JPC-3] is higher in relative viability: 0.477 for the first, 0.804 for the second.

First: PC-14
Second: RERF-LC-KJ
The relative viability of the first is higher: 0.558 for the first, 0.431 for the second.

Same assay, conditions: first compound 0.05 µM

Compared with LK-2, LOU-NH91 is higher in relative viability: 0.182 for the first, 0.613 for the second.

First: LU99A
Second: LXF-289
The relative viability of the first is higher: 0.279 for the first, 0.191 for the second.

First: NCI-H23
Second: NCI-H322M
The relative viability of the first is lower: 0.347 for the first, 0.523 for the second.

First: NCI-H358
Second: NCI-H441
The relative viability of the first is lower: 0.101 for the first, 0.587 for the second.

Going from NCI-H460 to NCI-H596, the relative viability falls from 0.521 to 0.338.

Compared with NCI-H647, NCI-H650 is higher in relative viability: 0.357 for the first, 0.628 for the second.

Compared with NCI-H727, NCI-H838 is lower in relative viability: 0.78 for the first, 0.292 for the second.

Compared with NCI-H1355, NCI-H1395 is higher in relative viability: 0.6 for the first, 0.797 for the second.

First: NCI-H1437
Second: NCI-H1651
The relative viability of the first is lower: 0.358 for the first, 0.918 for the second.

Compared with NCI-H1666, NCI-H1734 is lower in relative viability: 0.678 for the first, 0.313 for the second.

Compared with NCI-H1755, NCI-H1793 is lower in relative viability: 0.587 for the first, 0.454 for the second.

Going from NCI-H1915 to NCI-H1944, the relative viability falls from 0.42 to 0.297.

First: NCI-H1975
Second: NCI-H1993
The relative viability of the first is higher: 0.809 for the first, 0.567 for the second.

From the supplement of paper PMC10307832
